Tests used:
[1] = FTIR P═O stretching frequency in acetonitrile as a gauge of basicity; type: physicochemical; conditions: lower frequency = higher basicity
Method: FTIR analyses were carried out on a Nicolet 6700 FTIR spectrometer equipped with a 3 bounce zinc selenide (ZnSe) attenuated total reflectance (ATR) crystal assembly. 0.1 mL aliquots of solution were removed from samples via micro-syringe. The solution was then placed on the crystal and an FTIR spectrum was obtained.

[2] = Vapor-liquid-equilibrium (VLE) test: iodide measured in the condensed vapor phase (suppression of HI volatilization); type: physicochemical
[3] = for solubility, bis(diphenylphosphino) series: acetonitrile or glacial acetic acid (GAA)
[4] = pKb (basicity) of Group 15 oxides
[5] = additive 0.05 molar, 0.1M HI, 1.3M H2O (2 wt %), GAA, approximately 140° C.
[6] = additive 0.1 molar, 0.1M HI, 1.3M H2O (2 wt %), GAA, approximately 140° C.

SMILES: O=P(CP(=O)(c1ccccc1)c1ccccc1)(c1ccccc1)c1ccccc1 [Bis-DPPMeO2, bis(diphenylphosphino)methane dioxide]
- P═O, cm^−1 [1]: 1,197.7 cm^−1
- HI (ppm in vapor) [2, 5]: 7,889 ppm
- HI (ppm in vapor) [2, 6]: 876 ppm

SMILES: O=P(c1ccccc1)(c1ccccc1)c1ccccc1 [TPPO, triphenylphosphine oxide, reference compound]
- P═O, cm^−1 [1]: 1,191.6 cm^−1

SMILES: c1ccc(P(CCCCP(c2ccccc2)c2ccccc2)c2ccccc2)cc1
- solubility, bis(diphenylphosphino) series [3]: insoluble

SMILES: c1ccc(P(CCCCCCP(c2ccccc2)c2ccccc2)c2ccccc2)cc1
- solubility, bis(diphenylphosphino) series [3]: insoluble

SMILES: O=P(CCCP(=O)(c1ccccc1)c1ccccc1)(c1ccccc1)c1ccccc1 [Bis-DPPPrO2, bis(diphenylphosphino)propane dioxide]
- P═O, cm^−1 [1]: 1,180.8 cm^−1
- HI (ppm in vapor) [2, 5]: 6,291 ppm
- HI (ppm in vapor) [2, 6]: 421 ppm

SMILES: O=[As](c1ccccc1)(c1ccccc1)c1ccccc1 [Ph3AsO, triphenyl arsine oxide]
- solubility in GAA upon addition of HI ([3]; HI added): soluble
- solubility in GAA ([3]; without added HI): soluble
- pKb [4]: 4.15
- HI (ppm in vapor) ([2]; Table 5, additive 0.25 molar, 1:1 molar ratio of additive to HI): 1,132 ppm
- effectiveness in suppressing volatilization of HI relative to the CMPO ([2]; equivalent molarity, Table 5 conditions): about 7 times

SMILES: O=P(CCCP(=O)(c1ccccc1)c1ccccc1)(c1ccccc1)c1ccccc1 [Bis-DPPPrO]
- P═O, cm^−1 [1]: 1,180.0 cm^−1

SMILES: O=P(CP(=O)(C1CCCCC1)C1CCCCC1)(C1CCCCC1)C1CCCCC1 [Bis-DiCyPMeO2]
- P═O, cm^−1 [1]: 1,160.1 cm^−1

SMILES: O=P(CCCCCP(=O)(c1ccccc1)c1ccccc1)(c1ccccc1)c1ccccc1 [Bis-DPPPeO2, bis(diphenylphosphino)pentane dioxide]
- P═O, cm^−1 [1]: 1,178.2 cm^−1
- HI (ppm in vapor) [2, 5]: 5,392 ppm
- HI (ppm in vapor) [2, 6]: 683 ppm

Source: patent US20240279144A1, “CONTROL OF IODIDES IN ACETIC ACID PRODUCTION” (LyondellBasell Acetyls, LLC, priority 2023, published 2024)
